Where two headings read alike, the source gives them in different places.
Key:
Format in all cases: biochemical
[1] = target: CDK1/CycA2 (Homo sapiens, UniProt P06493); test: Kinase profiling
[2] = target: CDK12wt/CycK (Homo sapiens, UniProt Q9NYV4); test: Kinase profiling; conditions: 10 semi-logarithmic dilutions from 50 μM, singlicate
[3] = target: CDK2/CycA2 (Homo sapiens, UniProt P24941); test: Kinase profiling
[4] = target: CDK3/CycC (Homo sapiens, UniProt Q00526); test: Kinase profiling; conditions: 10 semi-logarithmic dilutions from 50 μM, singlicate
[5] = target: CDK3/CycE1 (Homo sapiens, UniProt Q00526); test: Kinase profiling; conditions: 10 semi-logarithmic dilutions from 50 μM, singlicate
[6] = target: CDK4/CycD3 (Homo sapiens, UniProt P11802); test: Kinase profiling
Sequence of CDK4/CycD3 (P11802 whole entry): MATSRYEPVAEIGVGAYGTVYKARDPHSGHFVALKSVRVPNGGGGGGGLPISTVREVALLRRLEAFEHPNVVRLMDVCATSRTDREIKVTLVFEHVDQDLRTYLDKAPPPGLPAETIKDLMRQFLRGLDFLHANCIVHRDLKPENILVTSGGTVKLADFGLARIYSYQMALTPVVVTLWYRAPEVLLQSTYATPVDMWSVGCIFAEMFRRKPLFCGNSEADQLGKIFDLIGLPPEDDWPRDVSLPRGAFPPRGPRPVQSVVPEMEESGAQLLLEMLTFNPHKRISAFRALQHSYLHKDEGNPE
Sequence of CDK4/CycD3 (P30281 whole entry partner): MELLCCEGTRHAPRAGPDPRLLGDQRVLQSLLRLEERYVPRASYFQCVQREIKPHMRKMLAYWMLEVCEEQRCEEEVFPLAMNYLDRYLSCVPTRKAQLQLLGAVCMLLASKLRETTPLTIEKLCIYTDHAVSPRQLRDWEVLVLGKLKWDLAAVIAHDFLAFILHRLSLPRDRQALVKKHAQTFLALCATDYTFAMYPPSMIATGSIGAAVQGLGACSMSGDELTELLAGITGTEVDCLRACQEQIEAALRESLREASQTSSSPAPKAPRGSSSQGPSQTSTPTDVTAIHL

[7] = target: CDK5/p25NCK (Homo sapiens, UniProt Q00535); test: Kinase profiling
Sequence of CDK5/p25NCK (Q00535 whole entry): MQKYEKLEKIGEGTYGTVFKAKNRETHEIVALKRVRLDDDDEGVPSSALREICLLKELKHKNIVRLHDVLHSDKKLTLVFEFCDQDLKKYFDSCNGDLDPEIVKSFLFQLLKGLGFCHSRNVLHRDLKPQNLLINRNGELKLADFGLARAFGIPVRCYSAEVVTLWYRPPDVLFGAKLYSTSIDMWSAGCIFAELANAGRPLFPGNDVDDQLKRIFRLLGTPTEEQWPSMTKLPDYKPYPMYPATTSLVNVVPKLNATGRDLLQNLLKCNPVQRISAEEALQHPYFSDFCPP
Sequence of CDK5/p25NCK (Q15078 99-307 partner limits assumed): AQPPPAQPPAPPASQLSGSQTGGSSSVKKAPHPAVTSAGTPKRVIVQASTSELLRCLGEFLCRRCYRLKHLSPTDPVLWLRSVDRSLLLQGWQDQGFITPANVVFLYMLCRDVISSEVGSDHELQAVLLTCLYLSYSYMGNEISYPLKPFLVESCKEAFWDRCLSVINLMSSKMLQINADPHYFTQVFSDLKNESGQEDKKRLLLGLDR

[8] = target: CDK5/p35NCK (Homo sapiens, UniProt Q00535); test: Kinase profiling
Sequence of CDK5/p35NCK (Q00535 whole entry): as the sequence (Q00535 whole entry) above
Sequence of CDK5/p35NCK (Q15078 whole entry partner): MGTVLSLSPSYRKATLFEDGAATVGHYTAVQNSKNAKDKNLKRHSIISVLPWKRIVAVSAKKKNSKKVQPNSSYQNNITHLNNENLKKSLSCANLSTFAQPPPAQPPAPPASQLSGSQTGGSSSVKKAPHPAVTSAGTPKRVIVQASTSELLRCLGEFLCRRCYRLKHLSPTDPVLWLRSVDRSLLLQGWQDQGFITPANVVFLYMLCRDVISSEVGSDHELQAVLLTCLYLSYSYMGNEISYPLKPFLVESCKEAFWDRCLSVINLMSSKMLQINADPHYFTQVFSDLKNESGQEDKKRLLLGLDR

[9] = target: CDK6/CycD1 (Homo sapiens, UniProt Q00534); test: Kinase profiling; conditions: 10 semi-logarithmic dilutions from 50 μM, singlicate
Sequence of CDK6/CycD1 (Q00534 whole entry): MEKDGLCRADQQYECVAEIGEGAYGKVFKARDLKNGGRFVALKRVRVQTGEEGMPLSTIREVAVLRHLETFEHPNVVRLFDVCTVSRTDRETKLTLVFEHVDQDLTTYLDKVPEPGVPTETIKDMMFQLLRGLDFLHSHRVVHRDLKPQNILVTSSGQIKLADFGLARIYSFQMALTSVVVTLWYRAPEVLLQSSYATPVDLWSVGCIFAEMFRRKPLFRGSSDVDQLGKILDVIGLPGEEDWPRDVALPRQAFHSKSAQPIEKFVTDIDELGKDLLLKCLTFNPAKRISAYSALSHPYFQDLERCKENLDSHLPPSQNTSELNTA
Sequence of CDK6/CycD1 (P24385 whole entry partner): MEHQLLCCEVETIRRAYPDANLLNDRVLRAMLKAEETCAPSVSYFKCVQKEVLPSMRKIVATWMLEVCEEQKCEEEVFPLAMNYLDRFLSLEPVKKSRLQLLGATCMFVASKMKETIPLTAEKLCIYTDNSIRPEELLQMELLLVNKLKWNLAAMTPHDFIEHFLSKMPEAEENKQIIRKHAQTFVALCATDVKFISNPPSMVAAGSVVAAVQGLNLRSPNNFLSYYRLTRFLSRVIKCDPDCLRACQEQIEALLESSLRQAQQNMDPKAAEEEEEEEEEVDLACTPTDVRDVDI

[10] = target: CDK6/CycD3 (Homo sapiens, UniProt Q00534); test: Kinase profiling; conditions: 10 semi-logarithmic dilutions from 50 μM, singlicate
Sequence of CDK6/CycD3 (Q00534 whole entry): as the sequence (Q00534 whole entry) above
Sequence of CDK6/CycD3 (P30281 whole entry partner): as the sequence (P30281 whole entry partner) above

[11] = target: CDK7/CycH/MAT1 (Homo sapiens, UniProt P50613); test: Kinase profiling; conditions: 10 semi-logarithmic dilutions from 50 μM, singlicate
[12] = target: CDK8/CycC (Homo sapiens, UniProt P49336); test: Kinase profiling; conditions: 10 semi-logarithmic dilutions from 50 μM, singlicate
[13] = target: CDK9/CycK (Homo sapiens, UniProt P50750); test: Kinase profiling; conditions: 10 semi-logarithmic dilutions from 50 μM, singlicate
Sequence of CDK9/CycK (P50750 whole entry): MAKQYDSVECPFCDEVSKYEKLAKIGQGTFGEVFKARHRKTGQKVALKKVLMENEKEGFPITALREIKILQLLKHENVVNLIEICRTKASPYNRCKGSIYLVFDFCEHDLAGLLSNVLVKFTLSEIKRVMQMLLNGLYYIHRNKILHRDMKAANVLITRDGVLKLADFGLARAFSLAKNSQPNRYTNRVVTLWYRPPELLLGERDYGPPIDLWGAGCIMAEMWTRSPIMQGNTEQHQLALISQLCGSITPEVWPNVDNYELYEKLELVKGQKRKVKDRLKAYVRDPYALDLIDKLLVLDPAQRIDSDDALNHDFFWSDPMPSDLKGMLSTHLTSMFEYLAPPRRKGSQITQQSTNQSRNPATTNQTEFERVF
Sequence of CDK9/CycK (O75909 whole entry partner): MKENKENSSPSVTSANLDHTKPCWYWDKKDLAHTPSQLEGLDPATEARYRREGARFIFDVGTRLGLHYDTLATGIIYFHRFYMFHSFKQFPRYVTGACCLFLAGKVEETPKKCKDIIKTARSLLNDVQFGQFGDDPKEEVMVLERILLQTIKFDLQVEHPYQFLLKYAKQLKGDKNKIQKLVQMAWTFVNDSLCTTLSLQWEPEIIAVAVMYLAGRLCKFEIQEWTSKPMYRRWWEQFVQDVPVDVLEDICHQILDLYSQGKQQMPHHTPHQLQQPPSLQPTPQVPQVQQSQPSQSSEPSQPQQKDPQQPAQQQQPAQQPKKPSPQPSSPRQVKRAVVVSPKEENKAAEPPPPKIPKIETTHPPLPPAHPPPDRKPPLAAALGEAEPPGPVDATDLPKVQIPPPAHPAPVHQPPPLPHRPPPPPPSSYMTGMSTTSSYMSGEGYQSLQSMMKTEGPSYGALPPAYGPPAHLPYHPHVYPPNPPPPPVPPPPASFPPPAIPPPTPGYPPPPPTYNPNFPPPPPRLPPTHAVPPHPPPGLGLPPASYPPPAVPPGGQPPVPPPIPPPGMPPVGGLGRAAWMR

[14] = target: ERK1 (Homo sapiens, UniProt P27361); test: Kinase profiling; conditions: 10 semi-logarithmic dilutions from 50 μM, singlicate
[15] = target: HIPK2 (Homo sapiens, UniProt Q9H2X6); test: Kinase profiling; conditions: 10 semi-logarithmic dilutions from 50 μM, singlicate; read-out: IC50 HIPK2
Sequence of HIPK2 (Q9H2X6 whole entry): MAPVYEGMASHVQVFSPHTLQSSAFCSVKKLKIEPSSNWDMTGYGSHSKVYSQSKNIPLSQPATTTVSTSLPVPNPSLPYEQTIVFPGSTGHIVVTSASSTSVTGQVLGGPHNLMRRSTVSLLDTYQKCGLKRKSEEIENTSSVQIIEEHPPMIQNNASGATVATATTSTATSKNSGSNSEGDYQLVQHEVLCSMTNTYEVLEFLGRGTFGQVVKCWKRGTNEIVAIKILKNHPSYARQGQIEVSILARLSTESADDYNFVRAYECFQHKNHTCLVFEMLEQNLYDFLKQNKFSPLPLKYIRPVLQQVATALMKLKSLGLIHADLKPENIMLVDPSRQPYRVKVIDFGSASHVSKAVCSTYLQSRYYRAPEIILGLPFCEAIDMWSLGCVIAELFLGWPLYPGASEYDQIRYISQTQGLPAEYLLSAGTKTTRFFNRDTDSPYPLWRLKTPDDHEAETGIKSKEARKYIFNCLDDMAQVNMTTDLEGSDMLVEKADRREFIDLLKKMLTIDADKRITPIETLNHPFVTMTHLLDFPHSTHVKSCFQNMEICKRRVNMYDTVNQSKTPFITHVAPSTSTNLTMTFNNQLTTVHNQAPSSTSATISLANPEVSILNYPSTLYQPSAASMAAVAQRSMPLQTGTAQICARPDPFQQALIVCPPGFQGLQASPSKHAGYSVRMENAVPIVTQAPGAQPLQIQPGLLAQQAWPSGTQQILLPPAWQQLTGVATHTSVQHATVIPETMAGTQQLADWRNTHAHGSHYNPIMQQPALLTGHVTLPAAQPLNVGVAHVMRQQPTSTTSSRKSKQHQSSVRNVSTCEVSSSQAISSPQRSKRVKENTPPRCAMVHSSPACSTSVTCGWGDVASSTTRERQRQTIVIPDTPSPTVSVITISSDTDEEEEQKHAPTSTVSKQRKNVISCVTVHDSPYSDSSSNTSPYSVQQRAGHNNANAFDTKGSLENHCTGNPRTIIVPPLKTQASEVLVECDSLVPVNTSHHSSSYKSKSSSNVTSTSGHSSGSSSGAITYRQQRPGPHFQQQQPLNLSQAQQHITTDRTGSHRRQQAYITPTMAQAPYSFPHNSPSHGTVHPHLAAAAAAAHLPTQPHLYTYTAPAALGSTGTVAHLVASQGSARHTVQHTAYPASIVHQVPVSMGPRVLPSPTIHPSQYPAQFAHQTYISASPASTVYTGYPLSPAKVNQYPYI

[16] = target: PIM1 (Homo sapiens, UniProt P11309); test: Kinase profiling; conditions: 10 semi-logarithmic dilutions from 50 μM, singlicate
Sequence of PIM1 (P11309 whole entry, species assumed): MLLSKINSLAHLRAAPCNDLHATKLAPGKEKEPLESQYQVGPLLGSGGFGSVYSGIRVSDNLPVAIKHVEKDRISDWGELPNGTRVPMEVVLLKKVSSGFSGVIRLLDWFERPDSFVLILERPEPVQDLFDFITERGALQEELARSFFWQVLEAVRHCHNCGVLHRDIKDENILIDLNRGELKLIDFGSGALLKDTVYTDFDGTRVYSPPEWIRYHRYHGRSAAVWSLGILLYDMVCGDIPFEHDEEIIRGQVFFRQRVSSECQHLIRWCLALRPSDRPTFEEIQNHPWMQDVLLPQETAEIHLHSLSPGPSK

[17] = tested on: panel of 27 kinases (CDK family members); test: Kinase profiling, results in words; conditions: from Table 1
[18] = 10 semi-logarithmic dilutions from 50 μM, singlicate

Compound `O=c1ccc2cnc(Nc3ccc(N4CCC(OCC5(CO)COC5)CC4)cc3)nc2n1[C@@H]1CC2CCC1C2` (stereo partly drawn) [PS016, 8-((2R)-bicyclo[2.2.1]heptan-2-yl)-2-((4-(4-((3-(hydroxymethyl)oxetan-3-yl)methoxy)piperidin-1-yl)phenyl)amino)pyrido[2,3-d]pyrimidin-7(8H)-one] has an IC50 [1, 18] of 1.36 µM, an IC50 [2] of 0.339 µM and an IC50 [3, 18] of 49.7 nM. It also gave an IC50 [4] of 0.555 µM, an IC50 [5] of 93.4 nM and an IC50 [6, 18] of 20.8 nM. For the same compound, the IC50 [7, 18] was 0.652 µM, the IC50 [8, 18] was 255 nM and the IC50 [9] was 7.42 nM. For the same compound, the IC50 [10] was 33.3 nM, the IC50 [11] was 2.37 µM and the IC50 [12] was 37.9 nM. It also gave an IC50 [13] of 46.9 nM, an IC50 [14] of 10.7 µM and an IC50 [15] greater than 50 µM. The IC50 [16] was 40.1 µM, the “additional affinity for CDK1/2” value [17] was “additional affinity” and the “affinity for CDK5” value [17] was “presented affinity”.
`CC(=O)c1c(C)c2cnc(Nc3ccc(N4CCC(CCCO)CC4)cc3)nc2n([C@@H]2CC3CCC2C3)c1=O` (stereo partly drawn) [PS008, 6-acetyl-8-((2R)-bicyclo[2.2.1]heptan-2-yl)-2-((4-(4-(3-hydroxypropyl)piperidin-1-yl)phenyl)amino)-5-methylpyrido[2,3-d]pyrimidin-7(8H)-one] gave an IC50 [1, 18] of 39.1 µM, an IC50 [2] of 28.1 µM and an IC50 [3, 18] of 3520 nM. It also gave an IC50 [4] of 1.86 µM, an IC50 [5] of 25900 nM and an IC50 [6, 18] of 261 nM. For the same compound, the IC50 [7, 18] was 9.43 µM, the IC50 [8, 18] was 3680 nM and the IC50 [9] was 19.5 nM. The IC50 [10] was 672 nM, the IC50 [11] was 11.8 µM and the IC50 [12] was 27300 nM. For the same compound, the IC50 [13] was 67.5 nM, the IC50 [14] was 0.949 µM and the IC50 [15] was 5.58 µM. The IC50 [16] was greater than 50 µM and the “additional affinity for CDK1/2” value [17] was “additional affinity”.
With `O=c1ccc2cnc(Nc3ccc(N4CCC(CCCO)CC4)cc3F)nc2n1[C@@H]1CC2CCC1C2` (stereo partly drawn) [PS002, 8-((2R)-bicyclo[2.2.1]heptan-2-yl)-2-((2-fluoro-4-(4-(3-hydroxypropyl)piperidin-1-yl)phenyl)amino)pyrido[2,3-d]pyrimidin-7(8H)-one] the IC50 [1, 18] was 34 µM, the IC50 [2] was 28.4 µM and the IC50 [3, 18] was 19700 nM. It also gave an IC50 [4] of 27.1 µM, an IC50 [5] of 17200 nM and an IC50 [6, 18] of 3840 nM. For the same compound, the IC50 [7, 18] was greater than 50 µM, the IC50 [8, 18] was 38600 nM and the IC50 [9] was 485 nM. The IC50 [10] was 12600 nM, the IC50 [11] was 40.7 µM and the IC50 [12] was 122 nM. The IC50 [13] was 7050 nM, the IC50 [14] was 47.5 µM and the IC50 [15] was greater than 50 µM. The IC50 [16] was 27.9 µM.
Compound `O=c1ccc2cnc(Nc3ccc(N4CCC(CCCO)CC4)c(F)c3)nc2n1[C@@H]1CC2CCC1C2` (stereo partly drawn) [PS003, 8-((2R)-bicyclo[2.2.1]heptan-2-yl)-2-((3-fluoro-4-(4-(3-hydroxypropyl)piperidin-1-yl)phenyl)amino)pyrido[2,3-d]pyrimidin-7(8H)-one] has an IC50 [1, 18] of 7.86 µM, an IC50 [2] of 3.18 µM and an IC50 [3, 18] of 810 nM. It also gave an IC50 [4] of 3.95 µM, an IC50 [5] of 1130 nM and an IC50 [6, 18] of 376 nM. For the same compound, the IC50 [7, 18] was 4.66 µM, the IC50 [8, 18] was 1920 nM and the IC50 [9] was 73.2 nM. For the same compound, the IC50 [10] was 623 nM, the IC50 [11] was 20 µM and the IC50 [12] was 677 nM. For the same compound, the IC50 [13] was 456 nM, the IC50 [14] was greater than 50 µM and the IC50 [15] was greater than 50 µM. For the same compound, the IC50 [16] was greater than 50 µM.
Work on `O=c1ccc2cnc(Nc3ccc(N4CCC(CCCO)CC4)cc3)nc2n1C1CC2CCC1C2` (centres unmarked) [PD-0183812, reference compound] yielded an IC50 [1] of 28.8 µM, an IC50 [2] of 3.16 µM and an IC50 [3] of 341 nM. For the same compound, the IC50 [4] was 5.21 µM, the IC50 [5] was 885 nM and the IC50 [6] was 71.8 nM. The IC50 [7] was 30.1 µM, the IC50 [8] was 1840 nM and the IC50 [9] was 19.9 nM. The IC50 [10] was 301 nM, the IC50 [11] was 45.4 µM and the IC50 [12] was 256 nM. It also gave an IC50 [13] of 174 nM, an IC50 [14] of 29.6 µM and an IC50 [15] greater than 50 µM. The IC50 [16] was 35.9 µM.

— patent US20230042936A1, “PYRIDO[2,3-d]PYRIMIDIN-7(8H)-ONES AS CDK INHIBITORS” (PROSENESTAR LLC, priority 2020, published 2023)
